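Cultured in 96-well plates, cells were exposed to test compound for 48 hours across five concentrations. Here, GI50 denotes the concentration required for 50% inhibition of growth.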 Active and inactive are the calls of the source. No stated cut-off is given here; in the data, active = GI50 up to about 1.1 µM and inactive = higher.
Tests used:
Experiment in all cases: growth of human tumour cells (NCI), 48 h
[1] = system: A498
[2] = system: A549
[3] = system: ACHN
[4] = system: CCRF-CEM
[5] = system: COLO 205
[6] = system: DMS-114
[7] = system: DMS-273
[8] = system: EKVX
[9] = system: HCC 2998
[10] = system: HCT-116
[11] = system: HCT-15
[12] = system: HL-60
[13] = system: HOP-62
[14] = system: HOP-92
[15] = system: HT-29
[16] = system: IGROV-1
[17] = system: KM-20L2
[18] = system: KM12
[19] = system: LOX IMVI
[20] = system: LXFL 529
[21] = system: M14
[22] = system: M19-MEL
[23] = system: MOLT-4
[24] = system: Malme-3M
[25] = system: NCI-H226
[26] = system: NCI-H23
[27] = system: NCI-H460
[28] = system: NCI-H522
[29] = system: OVCAR-3
[30] = system: OVCAR-4
[31] = system: OVCAR-5
[32] = system: OVCAR-8
[33] = system: RPMI-8226
[34] = system: RXF 393
[35] = system: SF-268
[36] = system: SF-295
[37] = system: SF-539
[38] = system: SK-MEL-28
[39] = system: SK-MEL-2
[40] = system: SK-MEL-5
[41] = system: SK-OV-3
[42] = system: SN12C
[43] = system: SNB-19
[44] = system: SNB-75
[45] = system: SNB-78
[46] = system: SR
[47] = system: SW-620
[48] = system: TK-10
[49] = system: U-251
[50] = system: UACC-257
[51] = system: UACC-62
[52] = system: XF498
[53] = system: CAKI-1
[54] = system: DLD-1
[55] = system: K562
[56] = system: UO-31
[57] = system: 786-0

Clc1ccc(C[P+](c2ccccc2)(c2ccccc2)c2ccccc2)c(Cl)c1
GI50 [1]: 4.61 µM (inactive) | GI50 [2]: 4.47 µM (inactive) | GI50 [3]: 10 µM (inactive) | GI50 [4]: 2.99 µM (inactive) | GI50 [5]: 1.16 µM (inactive) | GI50 [6]: 1.52 µM (inactive) | GI50 [7]: 1.93 µM (inactive) | GI50 [8]: 3.44 µM (inactive) | GI50 [9]: 3.47 µM (inactive) | GI50 [10]: 1.63 µM (inactive) | GI50 [11]: 24 µM | GI50 [12]: 0.8 µM (active) | GI50 [13]: 2.79 µM (inactive) | GI50 [14]: 1.71 µM (inactive) | GI50 [15]: 1.66 µM (inactive) | GI50 [16]: 1.87 µM (inactive) | GI50 [17]: 2.61 µM (inactive) | GI50 [18]: 1.69 µM (inactive) | GI50 [19]: 3.28 µM (inactive) | GI50 [20]: 1.67 µM (inactive) | GI50 [21]: 3.18 µM (inactive) | GI50 [22]: 1.88 µM (inactive) | GI50 [23]: 3.3 µM (inactive) | GI50 [24]: 3.87 µM (inactive) | GI50 [25]: 2.34 µM (inactive) | GI50 [26]: 2.89 µM (inactive) | GI50 [27]: 2.4 µM (inactive) | GI50 [28]: 1.67 µM (inactive) | GI50 [29]: 2.58 µM (inactive) | GI50 [30]: 4.04 µM (inactive) | GI50 [31]: 2.37 µM (inactive) | GI50 [32]: 2.75 µM (inactive) | GI50 [33]: 0.463 µM (active) | GI50 [34]: 2.7 µM (inactive) | GI50 [35]: 3.94 µM (inactive) | GI50 [36]: 3.08 µM (inactive) | GI50 [37]: 3.06 µM (inactive) | GI50 [38]: 5.98 µM (inactive) | GI50 [39]: 2.18 µM (inactive) | GI50 [40]: 1.38 µM (inactive) | GI50 [41]: 3.75 µM (inactive) | GI50 [42]: 2.7 µM (inactive) | GI50 [43]: 3.04 µM (inactive) | GI50 [44]: 2.77 µM (inactive) | GI50 [45]: 3.42 µM (inactive) | GI50 [46]: 1.89 µM (inactive) | GI50 [47]: 2.94 µM (inactive) | GI50 [48]: 6.52 µM (inactive) | GI50 [49]: 2.49 µM (inactive) | GI50 [50]: 1.04 µM (active) | GI50 [51]: 2.4 µM (inactive) | GI50 [52]: 1.61 µM (inactive)

CC1=N/C(=C\c2ccc(C)cc2)C(=O)O1
GI50 [53]: > 100 µM (inactive) | GI50 [4]: > 100 µM (inactive) | GI50 [5]: > 100 µM (inactive) | GI50 [54]: > 100 µM (inactive) | GI50 [9]: > 100 µM (inactive) | GI50 [11]: > 100 µM | GI50 [14]: > 100 µM (inactive) | GI50 [15]: > 100 µM (inactive) | GI50 [16]: > 100 µM (inactive) | GI50 [55]: > 100 µM (inactive) | GI50 [17]: > 100 µM (inactive) | GI50 [18]: > 100 µM (inactive) | GI50 [20]: > 100 µM (inactive) | GI50 [21]: > 100 µM (inactive) | GI50 [22]: > 100 µM (inactive) | GI50 [23]: > 100 µM (inactive) | GI50 [24]: > 100 µM (inactive) | GI50 [26]: > 100 µM (inactive) | GI50 [28]: > 100 µM (inactive) | GI50 [29]: > 100 µM (inactive) | GI50 [30]: > 100 µM (inactive) | GI50 [31]: > 100 µM (inactive) | GI50 [32]: > 100 µM (inactive) | GI50 [34]: > 100 µM (inactive) | GI50 [36]: > 100 µM (inactive) | GI50 [38]: > 100 µM (inactive) | GI50 [39]: > 100 µM (inactive) | GI50 [40]: > 100 µM (inactive) | GI50 [41]: > 100 µM (inactive) | GI50 [42]: > 100 µM (inactive) | GI50 [43]: > 100 µM (inactive) | GI50 [45]: > 100 µM (inactive) | GI50 [46]: > 100 µM (inactive) | GI50 [47]: > 100 µM (inactive) | GI50 [48]: > 100 µM (inactive) | GI50 [49]: > 100 µM (inactive) | GI50 [51]: > 100 µM (inactive) | GI50 [56]: > 100 µM (inactive) | GI50 [52]: > 100 µM (inactive)

CCCCCC(=O)N[C@H]1CCc2cc(OC)c(OC)c(OC)c2-c2ccc(SC)c(=O)cc21
GI50 [57]: 0.0335 µM (active) | GI50 [1]: 0.0172 µM (active) | GI50 [2]: 0.0306 µM (active) | GI50 [3]: 0.0374 µM (active) | GI50 [53]: 0.0914 µM (active) | GI50 [4]: 0.0254 µM (active) | GI50 [5]: 0.0122 µM (active) | GI50 [54]: < 0.01 µM (active) | GI50 [6]: < 0.01 µM (active) | GI50 [8]: 0.0395 µM (active) | GI50 [9]: 0.0212 µM (active) | GI50 [10]: 0.02 µM (active) | GI50 [11]: 0.0209 µM | GI50 [12]: < 0.01 µM (active) | GI50 [13]: 0.032 µM (active) | GI50 [14]: < 0.01 µM (active) | GI50 [15]: 0.0233 µM (active) | GI50 [16]: 0.0241 µM (active) | GI50 [55]: < 0.01 µM (active) | GI50 [17]: 0.0154 µM (active) | GI50 [18]: < 0.01 µM (active) | GI50 [20]: 0.0204 µM (active) | GI50 [21]: 0.016 µM (active) | GI50 [22]: 0.0229 µM (active) | GI50 [23]: 0.0516 µM (active) | GI50 [24]: 0.0106 µM (active) | GI50 [25]: < 0.01 µM (active) | GI50 [26]: < 0.01 µM (active) | GI50 [27]: < 0.01 µM (active) | GI50 [29]: 0.0153 µM (active) | GI50 [30]: 17.5 µM (inactive) | GI50 [31]: 47.3 µM (inactive) | GI50 [32]: 0.0253 µM (active) | GI50 [33]: 0.0181 µM (active) | GI50 [35]: 0.0212 µM (active) | GI50 [36]: 0.0155 µM (active) | GI50 [37]: 0.0158 µM (active) | GI50 [38]: 0.0223 µM (active) | GI50 [40]: 0.014 µM (active) | GI50 [41]: 0.0224 µM (active) | GI50 [42]: 0.0315 µM (active) | GI50 [43]: 0.0258 µM (active) | GI50 [44]: 0.0195 µM (active) | GI50 [45]: 0.00419 µM (active) | GI50 [46]: 0.00421 µM (active) | GI50 [47]: 0.0177 µM (active) | GI50 [48]: 0.521 µM (active) | GI50 [49]: 0.0224 µM (active) | GI50 [50]: < 0.01 µM (active) | GI50 [51]: 0.0204 µM (active) | GI50 [56]: 0.0308 µM (active) | GI50 [52]: 0.0239 µM (active)

Reference: ChEMBL document CHEMBL1201862, “PubChem BioAssay data set” (2004)
